Measurements taken from ChEMBL document CHEMBL4387736, “Anticancer saponin OSW-1 is a novel class of selective Golgi stress inducer” (Bioorg Med Chem Lett, 2019).
The source made the active and inactive calls. The calls are words filed in the database; no cut-off is given here.

How the values were obtained:
[1] = target: T1, Oxysterol-binding protein 1 (Homo sapiens) (UniProt P22059); test: Induction of OSBP localization in golgi apparatus of human HeLa cells assessed as increase in colocalization of 58K golgi protein at 5 nM incubated for 30 mins by immunofluorescence imaging method; assay type: cell-based
T1 sequence (whole entry): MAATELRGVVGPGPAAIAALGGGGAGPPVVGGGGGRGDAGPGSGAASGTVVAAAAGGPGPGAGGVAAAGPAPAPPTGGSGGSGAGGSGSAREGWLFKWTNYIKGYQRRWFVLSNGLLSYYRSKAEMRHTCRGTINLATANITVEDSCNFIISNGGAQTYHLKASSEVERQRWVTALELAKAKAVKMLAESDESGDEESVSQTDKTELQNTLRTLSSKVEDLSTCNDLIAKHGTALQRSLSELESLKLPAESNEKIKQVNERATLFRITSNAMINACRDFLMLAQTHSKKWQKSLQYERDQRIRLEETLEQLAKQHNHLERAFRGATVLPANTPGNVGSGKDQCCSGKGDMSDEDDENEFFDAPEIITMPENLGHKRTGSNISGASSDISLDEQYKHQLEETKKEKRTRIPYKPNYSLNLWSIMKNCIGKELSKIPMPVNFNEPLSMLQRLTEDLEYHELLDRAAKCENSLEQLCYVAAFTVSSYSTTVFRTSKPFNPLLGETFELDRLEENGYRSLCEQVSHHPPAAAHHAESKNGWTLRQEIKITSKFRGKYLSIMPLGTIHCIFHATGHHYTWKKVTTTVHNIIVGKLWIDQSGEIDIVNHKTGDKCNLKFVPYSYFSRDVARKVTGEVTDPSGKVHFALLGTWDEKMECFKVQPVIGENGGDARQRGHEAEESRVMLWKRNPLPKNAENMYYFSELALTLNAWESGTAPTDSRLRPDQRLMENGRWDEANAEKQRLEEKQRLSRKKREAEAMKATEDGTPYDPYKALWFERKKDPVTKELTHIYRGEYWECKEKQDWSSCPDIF

[2] = target: T1, Oxysterol-binding protein 1 (Homo sapiens); test: Induction of OSBP localization in golgi apparatus of human HeLa cells assessed as dispersion of GM130 in to cytosol at 2 uM incubated for 6 hrs by immunofluorescence microscopic method; assay type: cell-based
[3] = target: T1, Oxysterol-binding protein 1 (Homo sapiens); test: Induction of OSBP localization in golgi apparatus of human HeLa cells assessed as induction of cytosolic OSBP aggregation into vesicular structures at Golgi at 0.5 uM by eYFP detection based time-lapse imaging; assay type: cell-based
[4] = target: T1, Oxysterol-binding protein 1 (Homo sapiens); test: Inhibition of OSBP in human HeLa cells assessed as induction of golgi stress by measuring TFE3(S)/TFE3(L) dephosphorylation at 1 uM incubated for 2 hrs by Western blot analysis; assay type: cell-based
[5] = target: T1, Oxysterol-binding protein 1 (Homo sapiens); test: Inhibition of OSBP in human HeLa cells assessed as induction of golgi stress by measuring TFE3 nuclear translocation at 2 uM incubated for 4 hrs by immunofluorescence imaging analysis; assay type: cell-based
[6] = target: T1, Oxysterol-binding protein 1 (Homo sapiens); test: Inhibition of OSBP in human HeLa cells assessed as induction of golgi stress by measuring increase in TFE3-mediated GM130 mRNA expression at 2 uM incubated for 12 hrs; assay type: cell-based
[7] = target: T1, Oxysterol-binding protein 1 (Homo sapiens); test: Inhibition of OSBP in human HeLa cells assessed as induction of golgi stress by measuring downregulation of HSP47 mRNA expression at 2 uM incubated for 12 hrs; assay type: cell-based
[8] = target: T1, Oxysterol-binding protein 1 (Homo sapiens); test: Inhibition of OSBP in human HeLa cells assessed as induction of golgi stress by measuring upregulation of ARF4 mRNA expression at 2 uM incubated for 12 hrs; assay type: cell-based
[9] = target: T1, Oxysterol-binding protein 1 (Homo sapiens); test: Inhibition of OSBP in human HeLa cells assessed as induction of golgi stress by measuring GASE transactivation at 1 uM incubated for 24 hrs by GASE-luciferase reporter gene assay; assay type: cell-based
[10] = system: Panel NCI-60 (60 carcinoma cell lines); test: Growth inhibition of human NCI60 cells; assay type: functional
[11] = target: T1, Oxysterol-binding protein 1 (Homo sapiens); test: Induction of OSBP localization in golgi apparatus of human HeLa cells assessed as dispersion of giantin in to cytosol at 2 uM incubated for 6 hrs by immunofluorescence microscopic method; assay type: cell-based
[12] = target: T1, Oxysterol-binding protein 1 (Homo sapiens); test: Inhibition of OSBP in human HeLa cells assessed as induction of golgi stress by measuring increase in TFE3-mediated GCP60 mRNA expression at 2 uM incubated for 12 hrs; assay type: cell-based
[13] = target: T1, Oxysterol-binding protein 1 (Homo sapiens); test: Inhibition of OSBP in human HeLa cells assessed as induction of golgi stress by measuring increase in TFE3-mediated UAP1L1 mRNA expression at 2 uM incubated for 12 hrs; assay type: cell-based
[14] = target: T1, Oxysterol-binding protein 1 (Homo sapiens); test: Inhibition of OSBP in human HeLa cells assessed as induction of golgi stress by measuring increase in TFE3-mediated SIAT4A mRNA expression at 2 uM incubated for 12 hrs; assay type: cell-based
HeLa [15] = test: Induction of ER stress in human HeLa cells assessed as effect on pATF6(P) level at 1 uM incubated for 1 to 24 hrs by immunoblotting analysis; assay type: functional, cell-based
HeLa [16] = test: Induction of ER stress in human HeLa cells assessed as effect on pATF6(N) level at 1 uM incubated for 1 to 24 hrs by immunoblotting analysis; assay type: functional, cell-based
HeLa [17] = test: Induction of ER stress in human HeLa cells assessed as effect on pXBP1(S) level at 1 uM incubated for 1 to 24 hrs by immunoblotting analysis; assay type: functional, cell-based
HeLa [18] = test: Induction of ER stress in human HeLa cells assessed as effect on P-eIF2alpha level at 1 uM incubated for 1 to 24 hrs by immunoblotting analysis; assay type: functional, cell-based
HeLa [19] = test: Induction of ER stress in human HeLa cells assessed as effect on eIF2alpha level at 1 uM incubated for 1 to 24 hrs by immunoblotting analysis; assay type: functional, cell-based
HeLa [20] = test: Induction of ER stress in human HeLa cells assessed as effect on ATF4 level at 1 uM incubated for 1 to 24 hrs by immunoblotting analysis; assay type: functional, cell-based
HeLa [21] = test: Induction of ER stress in human HeLa cells assessed as effect on CHOP level at 1 uM incubated for 1 to 24 hrs by immunoblotting analysis; assay type: functional, cell-based
HeLa [22] = test: Induction of ER stress in human HeLa cells assessed as effect on CHOP mRNA level at 2 uM incubated for 1 1 hrs by qRT-PCR analysis; assay type: functional, cell-based
HeLa [23] = test: Induction of ER stress in human HeLa cells assessed as effect on BiP mRNA level at 2 uM incubated for 1 1 hrs by qRT-PCR analysis; assay type: functional, cell-based
HeLa [24] = test: Induction of ER stress in human HeLa cells assessed as effect on ERdj4 mRNA level at 2 uM incubated for 1 1 hrs by qRT-PCR analysis; assay type: functional, cell-based
[25] = Drug localization in golgi apparatus of human HeLa cells at 0.5 uM by fluorescence microscopy; assay type: ADME, subcellular

COc1ccc(C(=O)O[C@H]2[C@H](O[C@@H]3[C@@H](OC(C)=O)[C@H](O[C@H]4C[C@H]5[C@@H]6CC=C7C[C@@H](O)CC[C@]7(C)[C@H]6CC[C@]5(C)[C@@]4(O)[C@H](C)C(=O)CCC(C)C)OC[C@@H]3O)OC[C@@H](O)[C@@H]2O)cc1
Activity [1]: Active | Activity [2]: Active | Activity [3]: Active | inhibition [4]: Active | inhibition [5]: Active | inhibition [6]: Active | inhibition [7]: Active | inhibition [8]: Active | inhibition [9]: Active | GI50 [10]: 0.78 nM | Activity [11]: Active | inhibition [12]: Active | inhibition [13]: Active | inhibition [14]: Active | Activity (HeLa [15]): inactive | Activity (HeLa [16]): inactive | Activity (HeLa [17]): inactive | Activity (HeLa [18]): inactive | Activity (HeLa [19]): inactive | Activity (HeLa [20]): inactive | Activity (HeLa [21]): inactive | Activity (HeLa [22]): inactive | Activity (HeLa [23]): inactive | Activity (HeLa [24]): inactive

COc1ccc(C(=O)O[C@H]2[C@H](O[C@@H]3[C@@H](OC(C)=O)[C@H](O[C@H]4C[C@H]5[C@@H]6CC=C7C[C@@H](O)CC[C@]7(C)[C@H]6CC[C@]5(C)[C@@]4(O)[C@H](C)C(=O)CCC(C)C)OC[C@@H]3O)OC[C@@H](OC(=O)CN(C)c3ccc(S(=O)(=O)N(C)C)c4nonc34)[C@@H]2O)cc1
Drug uptake [25]: Active | GI50 [10]: 4 nM
